Publication PMC11290694 (Science (New York, N.Y.), 2024)
Read-outs that look alike come from different tables or passages of the source.

Experiments:
[1] = biological target: PiB; test: UV-visible absorption titration, single-site global fit; assay type: binding, synthetic construct
[2] = biological target: PiB′; test: as above; assay type: binding, synthetic construct

| Kd [1] | Kd [2] | Kd ([2]; PDB 8TNB is labelled mefuparib-bound PiB in b31 but PiB′ in b20 and b22) | SMILES |
| --- | --- | --- | --- |
| 600 nM | 550 nM |  | NC(=O)c1cccc2cn(-c3ccc([C@@H]4CCCNC4)cc3)nc12 [niraparib] |
| 190 nM |  | 350 nM | CNCc1ccc(-c2cc3cc(F)cc(C(N)=O)c3o2)cc1 [mefuparib] |
